Assay results as given in PubChem BioAssay AID248 (DTP/NCI, 2004).
Values joined by “and” are separate entries in the source; they are usually repeats but may differ in a detail not shown here. Equal entries are not always repeated. Inconclusive results and toxic doses are left out. No stated cut-off is given here; in the data, active means T/C of 150% or more; inactive means T/C below 125%.

Tested on: L1210 leukemia ip in BDF1 mice, survival T/C
Assay: NCI In Vivo Anticancer Drug Screen. Data for tumor model L1210 Leukemia (intraperitoneal) in B6D2F1 (BDF1) mice
Conditions: endpoint: mean survival time, higher = longer survival
How it was run: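 Value reflects the ratio of survival in compound-treated mice to survival in vehicle-treated controls, with both groups carrying the same transplanted tumor.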

[1] = dose: 100.0 mg/kg/injection, schedule: Q04DX003 (ip), vehicle: Klucel (hydroxypropylcellulose) (HPC)
[2] = dose: 200.0 mg/kg/injection, schedule: Q04DX003 (ip), vehicle: Klucel (hydroxypropylcellulose) (HPC)
[3] = dose: 400.0 mg/kg/injection, schedule: Q04DX003 (ip), vehicle: Klucel (hydroxypropylcellulose) (HPC)
[4] = dose: 25.0 mg/kg/injection, schedule: Q01DX009 (ip), vehicle: saline
[5] = dose: 50.0 mg/kg/injection, schedule: Q01DX009 (ip), vehicle: saline
[6] = dose: 100.0 mg/kg/injection, schedule: Q01DX009 (ip), vehicle: saline
[7] = dose: 100.0 mg/kg/injection, schedule: Q04DX003 (ip), vehicle: saline
[8] = dose: 100.0 mg/kg/injection, schedule: Q01DX001 (ip), vehicle: carboxymethylcellulose (CMC)
[9] = dose: 200.0 mg/kg/injection, schedule: Q01DX001 (ip), vehicle: carboxymethylcellulose (CMC)
[10] = dose: 400.0 mg/kg/injection, schedule: Q01DX001 (ip), vehicle: carboxymethylcellulose (CMC)
[11] = dose: 100.0 mg/kg/injection, schedule: Q01DX009 (ip), vehicle: other
[12] = dose: 200.0 mg/kg/injection, schedule: Q01DX009 (ip), vehicle: other
[13] = dose: 100.0 mg/kg/injection, schedule: Q04DX002 (ip), vehicle: Klucel (hydroxypropylcellulose) (HPC)
[14] = dose: 200.0 mg/kg/injection, schedule: Q04DX002 (ip), vehicle: Klucel (hydroxypropylcellulose) (HPC)
[15] = dose: 400.0 mg/kg/injection, schedule: Q04DX002 (ip), vehicle: Klucel (hydroxypropylcellulose) (HPC)
[16] = dose: 50.0 mg/kg/injection, schedule: Q01DX001 (ip), vehicle: saline
[17] = dose: 100.0 mg/kg/injection, schedule: Q01DX001 (ip), vehicle: saline
[18] = dose: 200.0 mg/kg/injection, schedule: Q01DX001 (ip), vehicle: saline
[19] = dose: 200.0 mg/kg/injection, schedule: Q01DX009 (ip), vehicle: saline
[20] = dose: 100.0 mg/kg/injection, schedule: Q01DX009 (ip), vehicle: Klucel (hydroxypropylcellulose) (HPC)
[21] = dose: 200.0 mg/kg/injection, schedule: Q01DX009 (ip), vehicle: Klucel (hydroxypropylcellulose) (HPC)
[22] = dose: 400.0 mg/kg/injection, schedule: Q01DX009 (ip), vehicle: Klucel (hydroxypropylcellulose) (HPC)
[23] = dose: 75.0 mg/kg/injection, schedule: Q01DX001 (ip), vehicle: other
[24] = dose: 12.5 mg/kg/injection, schedule: Q01DX009 (ip), vehicle: saline

Measured: T/C

CN(C)c1ccc(/C=C(\C#N)c2nc3ccccc3[nH]2)cc1
inactive: dose: 100.0 mg/kg/injection, schedule: Q01DX001 (ip), vehicle: Klucel (hydroxypropylcellulose) (HPC) 96 % of control | [1] 91 % of control | dose: 200.0 mg/kg/injection, schedule: Q01DX001 (ip), vehicle: Klucel (hydroxypropylcellulose) (HPC) 99 % of control | [2] 94 % of control | dose: 400.0 mg/kg/injection, schedule: Q01DX001 (ip), vehicle: Klucel (hydroxypropylcellulose) (HPC) 96 % of control | [3] 93 % of control

CC(C)N(CCCOC(=O)c1ccc(N)cc1)C(C)C
inactive: [4] 95 % of control | [5] 109 % of control | [6] 106 % of control | [7] 105 % of control

COC1(OC)C2(Cl)C=C(c3ccccc3)C1(Cl)C(Cl)=C2Cl (stereo unspecified)
inactive: [8] 92 % of control | [9] 97 % of control | [10] 94 % of control

OCCSc1ccc(Cl)cc1
inactive: [11] 97 % of control | [12] 95 % of control

CSCCC(NC(=O)c1ccccc1)C(=O)O (stereo unspecified)
inactive: [1] 94 % of control | [2] 92 % of control | [3] 94 % of control

CCCCCOC(=O)Nc1cccc2ccccc12
inactive: [13] 94 % of control | [14] 94 % of control | [15] 98 % of control

O=S(=O)(Nc1ccc2ccccc2c1)c1ccc2ccccc2c1
inactive: [1] 91 % of control | [2] 90 % of control | [3] 91 % of control

CCC(CC)(CC)C(OC(=O)c1ccccc1C(=O)O)c1ccccc1 (stereo unspecified)
inactive: [16] 95 % of control | [17] 95 % of control | [18] 97 % of control | dose: 400.0 mg/kg/injection, schedule: Q01DX001 (ip), vehicle: saline 88 % of control

COC1(OC)C2CCC1C(O)C2 (stereo unspecified)
inactive: [6] 104 % of control | [19] 105 % of control

CCOC(=O)C(C)N(c1ccccc1)S(=O)(=O)c1ccc(C)cc1 (stereo unspecified)
inactive: [8] 103 % of control | [9] 110 % of control | [10] 113 % of control

Cc1ccc(NC(=O)NCc2ccco2)cc1
inactive: dose: 222.0 mg/kg/injection, schedule: Q01DX Z (ip), vehicle: methylcellulose (MC) 94 % of control | dose: 333.0 mg/kg/injection, schedule: Q01DX Z (ip), vehicle: methylcellulose (MC) 100 % of control | dose: 500.0 mg/kg/injection, schedule: Q01DX Z (ip), vehicle: methylcellulose (MC) 94 % of control

Cc1ccc(C)c(-n2nnc3ccccc3c2=O)c1
inactive: dose: 100.0 mg/kg/injection, schedule: Q01DX009 (ip), vehicle: saline with Tween-80 89 % of control | dose: 100.0 mg/kg/injection, schedule: Q04DX003 (ip), vehicle: saline with Tween-80 95 % of control | dose: 200.0 mg/kg/injection, schedule: Q01DX009 (ip), vehicle: saline with Tween-80 92 % of control | dose: 200.0 mg/kg/injection, schedule: Q04DX003 (ip), vehicle: saline with Tween-80 101 % of control | dose: 400.0 mg/kg/injection, schedule: Q01DX009 (ip), vehicle: saline with Tween-80 91 % of control | dose: 400.0 mg/kg/injection, schedule: Q04DX003 (ip), vehicle: saline with Tween-80 96 % of control

O=C(CC(=O)c1ccccc1)Cc1ccccc1.O=C(CC(=O)c1ccccc1)Cc1ccccc1.[Cu]
inactive: [1] 94 % of control | [2] 97 % of control | [3] 104 % of control

Cc1cc(C)c([N+](=O)[O-])c(C)c1
inactive: [20] 104 % of control | [21] 97 % of control | [22] 92 % of control

OCCS
inactive: dose: 25.0 mg/kg/injection, schedule: Q01DX001 (ip), vehicle: saline 105 % of control | dose: 44.0 mg/kg/injection, schedule: Q01DX001 (ip), vehicle: saline 95 % of control | [16] 97 % of control | dose: 66.0 mg/kg/injection, schedule: Q01DX001 (ip), vehicle: saline 105 % of control | [17] 100 % of control and 103 % of control | dose: 150.0 mg/kg/injection, schedule: Q01DX001 (ip), vehicle: saline 103 % of control | [18] 102 % of control and 105 % of control

CCCCN(C=O)c1ccccc1
inactive: [20] 108 % of control | [1] 97 % of control | [21] 104 % of control | [2] 103 % of control | [22] 87 % of control | [3] 97 % of control

CCOC(=O)C(C#N)=C(C)C
inactive: [23] 103 % of control | [17] 97 % of control | [7] 97 % of control | dose: 200.0 mg/kg/injection, schedule: Q04DX003 (ip), vehicle: saline 94 % of control

NC1(N)Sc2nc3ccccc3nc2S1
inactive: dose: 100.0 mg/kg/injection, schedule: Q04DX002 (ip), vehicle: saline with Tween-80 101 % of control

C/C(=N/NC(N)=S)c1ccc(Cl)cc1
inactive: dose: 5.0 mg/kg/injection, schedule: Q01DX001 (ip), vehicle: other 105 % of control | dose: 10.0 mg/kg/injection, schedule: Q01DX001 (ip), vehicle: other 111 % of control

O=C(O)COc1ccccc1F
inactive: [13] 113 % of control | [14] 98 % of control | [15] 98 % of control

CCCCCCCCc1c(C)nc(N)[nH]c1=O
inactive: [13] 100 % of control | [14] 100 % of control | [15] 104 % of control

CP1(=O)CC2OC23CCCCC31 (stereo unspecified)
inactive: [24] 98 % of control | [4] 98 % of control | [5] 102 % of control | [11] 109 % of control | [6] 89 % of control | [12] 114 % of control

OC(c1ccccc1)(c1ccccc1)C1CCC1
inactive: dose: 50.0 mg/kg/injection, schedule: Q01DX009 (ip), vehicle: Klucel (hydroxypropylcellulose) (HPC) 100 % of control | dose: 75.0 mg/kg/injection, schedule: Q01DX001 (ip), vehicle: Klucel (hydroxypropylcellulose) (HPC) 95 % of control | [20] 94 % of control | dose: 150.0 mg/kg/injection, schedule: Q01DX001 (ip), vehicle: Klucel (hydroxypropylcellulose) (HPC) 101 % of control | dose: 300.0 mg/kg/injection, schedule: Q01DX001 (ip), vehicle: Klucel (hydroxypropylcellulose) (HPC) 98 % of control

O=C(NN1C(=O)c2cccc3cccc(c23)C1=O)NN1C(=O)c2cccc3cccc(c23)C1=O
inactive: [13] 92 % of control | [14] 92 % of control

NC(=O)NC(=O)c1ccccc1
inactive: [6] 96 % of control | [19] 101 % of control | dose: 400.0 mg/kg/injection, schedule: Q01DX009 (ip), vehicle: saline 106 % of control

Cc1cc(C(=O)O)c(C(=O)O)c(Cl)n1
inactive: [23] 90 % of control | dose: 150.0 mg/kg/injection, schedule: Q01DX001 (ip), vehicle: other 95 % of control | dose: 300.0 mg/kg/injection, schedule: Q01DX001 (ip), vehicle: other 91 % of control

COc1cc2c(c(OC)c1OC)CCNC2
inactive: dose: 5.0 mg/kg/injection, schedule: Q01DX001 (ip), vehicle: saline 100 % of control | dose: 10.0 mg/kg/injection, schedule: Q01DX001 (ip), vehicle: saline 100 % of control | dose: 20.0 mg/kg/injection, schedule: Q01DX001 (ip), vehicle: saline 100 % of control | dose: 40.0 mg/kg/injection, schedule: Q01DX001 (ip), vehicle: saline 101 % of control

COCn1cnc2c(F)ncnc21
inactive: dose: 6.25 mg/kg/injection, schedule: Q01DX009 (ip), vehicle: saline 94 % of control | dose: 6.25 mg/kg/injection, schedule: Q04DX003 (ip), vehicle: saline 101 % of control | [24] 100 % of control | dose: 12.5 mg/kg/injection, schedule: Q04DX003 (ip), vehicle: saline 104 % of control | [4] 101 % of control | dose: 25.0 mg/kg/injection, schedule: Q04DX003 (ip), vehicle: saline 102 % of control

NC(CCl)=NCCOC12CC3CC(CC(C3)C1)C2
inactive: dose: 25.0 mg/kg/injection, schedule: Q04DX002 (ip), vehicle: saline 94 % of control | dose: 50.0 mg/kg/injection, schedule: Q04DX002 (ip), vehicle: saline 112 % of control | dose: 100.0 mg/kg/injection, schedule: Q04DX002 (ip), vehicle: saline 96 % of control and 87 % of control
